Measured values as given in patent publication US8796256B2 (Janssen Pharmaceutica NV, priority 2010, dated 2014).

Test system: Zucker fa/fa male rats
Assay: Zucker fa/fa Rat Model Assay
Assay type: in vivo
Conditions: po, 120 h, 10 mg/kg orally once a day for 4 days, blood from tail vein at day 5, read-out: % Change Fed Insulin Levels
Source text: Zucker fa/fa is a monogenic model of frank diabetes due to a mutation on the fa gene truncating the leptin receptor and preventing its interaction with its peptide hormone. This mutation results in a hyperphagic phenotype and the rodent develops obesity, hyperlipidemia, fasting hyperglycemia and insulin resistance. Zucker fa/fa male rats were received at four weeks of age and allowed to acclimate for one week. At five weeks of age the animals were single housed in cages in a temperature-controlled room with 12-hour light/dark cycle. The rats were allowed ad libitum access to water and food and throughout the study were maintained on a Purina 5008 diet. Animals were sorted based primarily on fed insulin levels and circulating triglycerides. Animals were dosed orally once a day (10 mg/kg) in the morning for 4 days. The vehicle used was either 20% HPβCD (Hydroxypropyl Beta Cyclodextrin) or 15% Vitamin E/30% PEG-400 (Polyethylene Glycol 400). Fed insulin and triglycerides were measured using blood collected from the tail vein at day 5. Serum plasma samples were prepared by centrifugation in EDTA (Ethylenediaminetetraacetic acid) containing tubes, transferred into 96 well plates and stored at −80° C.

Row | Structure (SMILES) | change in vivo at 10 mg/kg [%]
1 | CN1CC[C@@H](N2C(=O)S/C(=C\c3ccc4c(cnn4Cc4ccc(Cl)cc4C(F)(F)F)c3)C2=O)[C@H](F)C1 (relative stereo) [Compound 277, (5Z)-5-({1-[4-Chloro-2-(trifluoromethyl)benzyl]-1H-indazol-5-yl}methylidene)-3-(trans-3-fluoro-1-methylpiperidin-4-yl)-1,3-thiazolidine-2,4-dione] | -73
2 | O=C(O)CN1C(=O)S/C(=C\c2ccc3c(cnn3Cc3ccc(Cl)cc3C(F)(F)F)c2)C1=O [Compound 4, (5Z)-5-{[1-(4-Chloro-2-trifluoromethylbenzyl)-1H-indazol-5-yl]methylidene}-2,4-dioxothiazolidin-3-ylacetic acid] | -50

Same assay, conditions: po, 120 h, 10 mg/kg orally once a day for 4 days, blood from tail vein at day 5, read-out: % Change Fed Triglyceride Levels

Row | Structure (SMILES) | change in vivo at 10 mg/kg [%]
3 | CN1CC[C@@H](N2C(=O)S/C(=C\c3ccc4c(cnn4Cc4ccc(Cl)cc4C(F)(F)F)c3)C2=O)[C@H](F)C1 (relative stereo) [Compound 277, (5Z)-5-({1-[4-Chloro-2-(trifluoromethyl)benzyl]-1H-indazol-5-yl}methylidene)-3-(trans-3-fluoro-1-methylpiperidin-4-yl)-1,3-thiazolidine-2,4-dione] | -57
4 | O=C(O)CN1C(=O)S/C(=C\c2ccc3c(cnn3Cc3ccc(Cl)cc3C(F)(F)F)c2)C1=O [Compound 4, (5Z)-5-{[1-(4-Chloro-2-trifluoromethylbenzyl)-1H-indazol-5-yl]methylidene}-2,4-dioxothiazolidin-3-ylacetic acid] | -14

Biological target: T1, ERR1 (also known as ERR-α or ERR-1) (Homo sapiens, UniProt P11474)
T1 sequence (P11474 193-421 limits assumed): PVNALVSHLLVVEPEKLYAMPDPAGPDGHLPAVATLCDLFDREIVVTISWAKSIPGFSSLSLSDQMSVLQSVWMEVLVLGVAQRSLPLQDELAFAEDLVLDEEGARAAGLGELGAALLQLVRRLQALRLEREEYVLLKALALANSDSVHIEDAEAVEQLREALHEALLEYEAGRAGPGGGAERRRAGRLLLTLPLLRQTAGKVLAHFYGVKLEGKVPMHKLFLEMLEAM
Assay: TR-FRET assay (disruption of co-activator peptide binding to ERR1 LBD)
Assay type: biochemical
Conditions: 6 nM 6His-ERR1LBD, 6 nM GST-SRC-2 peptide; average of 3 independent experiments
Outline: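 Homogeneous TR-FRET measuring displacement of GST-hSRC2 co-activator peptide (6 nM) from His-tagged ERR1 LBD (6 nM), detected with α-GST Eu cryptate (30 nM) and α-His-XL665 (7.5 nM). Buffer 25 mM Tris pH 8, 2.5 mM Hepes, 20 mM KCl, 1 mM DTT, 0.05 mg/mL delipidated BSA; equilibration 4-18 h at 25° C. Hyperbolic dose-response fit, mean of 3 experiments.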

Row | Structure (SMILES) | EC50 [nM]
5 | Cn1cnc(CN2C(=O)S/C(=C\c3ccc4c(cnn4Cc4ccc(Cl)cc4C(F)(F)F)c3)C2=O)c1 [Compound 402, (5Z)-5-({1-[4-Chloro-2-(trifluoromethyl)benzyl]-1H-indazol-5-yl}methylidene)-3-[(1-methyl-1H-imidazol-4-yl)methyl]-1,3-thiazolidine-2,4-dione] | 48
6 | O=C1S/C(=C\c2ccc3c(cnn3Cc3ccc(Cl)cc3C(F)(F)F)c2)C(=O)N1Cc1c[nH]cn1 [Compound 405, (5Z)-5-({1-[4-Chloro-2-(trifluoromethyl)benzyl]-1H-indazol-5-yl}methylidene)-3-(1H-imidazol-4-ylmethyl)-1,3-thiazolidine-2,4-dione] | 48
7 | O=C(O)CN1C(=O)S/C(=C\c2ccc3c(c2)c(F)nn3Cc2ccc(Cl)cc2C(F)(F)F)C1=O [Compound 406, [(5Z)-5-({1-[4-Chloro-2-(trifluoromethyl)benzyl]-3-fluoro-1H-indazol-5-yl}methylidene)-2,4-dioxo-1,3-thiazolidin-3-yl]acetic acid] | 13
8 | CC(=O)Nc1nc(CN2C(=O)S/C(=C\c3ccc4c(cnn4Cc4ccc(Cl)cc4C(F)(F)F)c3)C2=O)cs1 [Compound 413, N-(4-{[(5Z)-5-({1-[4-Chloro-2-(trifluoromethyl)benzyl]-1H-indazol-5-yl}methylidene)-2,4-dioxo-1,3-thiazolidin-3-yl]methyl}-1,3-thiazol-2-yl)acetamide] | 312
9 | O=C1S/C(=C\c2ccc3c(cnn3Cc3ccc(Cl)cc3C(F)(F)F)c2)C(=O)N1CC(=O)N1CCNS1(=O)=O [Compound 415] | 12
10 | N#Cc1nn(Cc2ccc(Cl)cc2C(F)(F)F)c2ccc(/C=C3\SC(=O)N(CC(=O)O)C3=O)cc12 [Compound 416, [(5Z)-5-({1-[4-Chloro-2-(trifluoromethyl)benzyl]-3-cyano-1H-indazol-5-yl}methylidene)-2,4-dioxo-1,3-thiazolidin-3-yl]acetic acid] | 35
11 | NC(=O)c1nn(Cc2ccc(Cl)cc2C(F)(F)F)c2ccc(/C=C3\SC(=O)N(CC(=O)O)C3=O)cc12 [Compound 417, [(5Z)-5-({3-Carbamoyl-1-[4-chloro-2-(trifluoromethyl)benzyl]-1H-indazol-5-yl}methylidene)-2,4-dioxo-1,3-thiazolidin-3-yl]acetic acid] | 50
12 | Cc1noc(C)c1S(=O)(=O)NCCN1C(=O)S/C(=C\c2ccc3c(cnn3Cc3ccc(Cl)cc3C(F)(F)F)c2)C1=O [Compound 419, N-{2-[(5Z)-5-({1-[4-Chloro-2-(trifluoromethyl)benzyl]-1H-indazol-5-yl}methylidene)-2,4-dioxo-1,3-thiazolidin-3-yl]ethyl}-3,5-dimethylisoxazole-4-sulfonamide] | 115
13 | CC(=O)Nc1nc(C)c(S(=O)(=O)NCCN2C(=O)S/C(=C\c3ccc4c(cnn4Cc4ccc(Cl)cc4C(F)(F)F)c3)C2=O)s1 [Compound 420, N-[5-({2-[(5Z)-5-({1-[4-Chloro-2-(trifluoromethyl)benzyl]-1H-indazol-5-yl}methylidene)-2,4-dioxo-1,3-thiazolidin-3-yl]ethyl}sulfamoyl)-4-methyl-1,3-thiazol-2-yl]acetamide] | 28
14 | O=C(O)c1ccc(S(=O)(=O)NCCN2C(=O)S/C(=C\c3ccc4c(cnn4Cc4ccc(Cl)cc4C(F)(F)F)c3)C2=O)o1 [Compound 421, 5-({2-[(5Z)-5-({1-[4-Chloro-2-(trifluoromethyl)benzyl]-1H-indazol-5-yl}methylidene)-2,4-dioxo-1,3-thiazolidin-3-yl]ethyl}sulfamoyl)furan-2-carboxylic acid] | 34

Further lines, results first:

Row | EC50 [nM] | Structure (SMILES)
15 | 58 | CN1CC[C@@H](N2C(=O)S/C(=C\c3ccc4c(cnn4Cc4ccc(Cl)cc4C(F)(F)F)c3)C2=O)[C@H](F)C1 (relative stereo) [Compound 277, (5Z)-5-({1-[4-Chloro-2-(trifluoromethyl)benzyl]-1H-indazol-5-yl}methylidene)-3-(trans-3-fluoro-1-methylpiperidin-4-yl)-1,3-thiazolidine-2,4-dione]
16 | 9 | O=C(O)CN1C(=O)S/C(=C\c2ccc3c(cnn3Cc3ccc(Cl)cc3C(F)(F)F)c2)C1=O [Compound 4, (5Z)-5-{[1-(4-Chloro-2-trifluoromethylbenzyl)-1H-indazol-5-yl]methylidene}-2,4-dioxothiazolidin-3-ylacetic acid]
17 | 20 | O=C1S/C(=C\c2ccc3c(cnn3Cc3ccc(Cl)cc3C(F)(F)F)c2)C(=O)N1Cc1ncc[nH]1 [Compound 403, (5Z)-5-({1-[4-Chloro-2-(trifluoromethyl)benzyl]-1H-indazol-5-yl}methylidene)-3-(1H-imidazol-2-ylmethyl)-1,3-thiazolidine-2,4-dione]
18 | 21 | O=C1S/C(=C\c2ccc3c(cnn3Cc3ccc(Cl)cc3C(F)(F)F)c2)C(=O)N1Cc1nccn1Cc1ncc[nH]1 [Compound 404, (5Z)-5-({1-[4-Chloro-2-(trifluoromethyl)benzyl]-1H-indazol-5-yl}methylidene)-3-{[1-(1H-imidazol-2-ylmethyl)-1H-imidazol-2-yl]methyl}-1,3-thiazolidine-2,4-dione]
19 | 7 | O=C(O)CN1C(=O)S/C(=C\c2ccc3c(c2)c(Br)nn3Cc2ccc(Cl)cc2C(F)(F)F)C1=O [Compound 407, [(5Z)-5-({3-Bromo-1-[4-chloro-2-(trifluoromethyl)benzyl]-1H-indazol-5-yl}methylidene)-2,4-dioxo-1,3-thiazolidin-3-yl]acetic acid]
20 | 153 | O=C(O)CN1C(=O)S/C(=C\c2ccc3c(c2)c(-c2ccc(F)cc2)nn3Cc2ccc(Cl)cc2C(F)(F)F)C1=O [Compound 408, [(5Z)-5-({1-[4-Chloro-2-(trifluoromethyl)benzyl]-3-(4-fluorophenyl)-1H-indazol-5-yl}methylidene)-2,4-dioxo-1,3-thiazolidin-3-yl]acetic acid]
21 | > 10000 | O=C1S/C(=C\c2ccc3c(cnn3Cc3ccc(Cl)cc3C(F)(F)F)c2)C(=O)N1CC1COS(=O)(=O)N1 (centres unmarked) [Compound 409, (5Z)-5-({1-[4-Chloro-2-(trifluoromethyl)benzyl]-1H-indazol-5-yl}methylidene)-3-[(2,2-dioxido-1,2,3-oxathiazolidin-4-yl)methyl]-1,3-thiazolidine-2,4-dione]
22 | 25 | CS(=O)(=O)n1ccnc1CN1C(=O)S/C(=C\c2ccc3c(cnn3Cc3ccc(Cl)cc3C(F)(F)F)c2)C1=O [Compound 410, (5Z)-5-({1-[4-Chloro-2-(trifluoromethyl)benzyl]-1H-indazol-5-yl}methylidene)-3-{[1-(methylsulfonyl)-1H-imidazol-2-yl]methyl}-1,3-thiazolidine-2,4-dione]
23 | 29 | O=C1S/C(=C\c2ccc3c(cnn3Cc3ccc(Cl)cc3C(F)(F)F)c2)C(=O)N1Cc1nccn1S(=O)(=O)C(F)(F)F [Compound 411, (5Z)-5-({1-[4-Chloro-2-(trifluoromethyl)benzyl]-1H-indazol-5-yl}methylidene)-3-({1-[(trifluoromethyl)sulfonyl]-1H-imidazol-2-yl}methyl)-1,3-thiazolidine-2,4-dione]
24 | 38 | O=C1S/C(=C\c2ccc3c(cnn3Cc3ccc(Cl)cc3C(F)(F)F)c2)C(=O)N1Cc1nccn1S(=O)(=O)N1CCCC1 [Compound 412, (5Z)-5-({1-[4-Chloro-2-(trifluoromethyl)benzyl]-1H-indazol-5-yl}methylidene)-3-{[1-(pyrrolidin-1-ylsulfonyl)-1H-imidazol-2-yl]methyl}-1,3-thiazolidine-2,4-dione]
25 | 109 | O=C1S/C(=C\c2ccc3c(cnn3Cc3ccc(Cl)cc3C(F)(F)F)c2)C(=O)N1Cc1csc(NS(=O)(=O)C(F)(F)F)n1 [Compound 414, N-(4-{[(5Z)-5-({1-[4-Chloro-2-(trifluoromethyl)benzyl]-1H-indazol-5-yl}methylidene)-2,4-dioxo-1,3-thiazolidin-3-yl]methyl}-1,3-thiazol-2-yl)-1,1,1-trifluoromethanesulfonamide]
26 | 83 | Cc1nn(C)c(Cl)c1S(=O)(=O)NCCN1C(=O)S/C(=C\c2ccc3c(cnn3Cc3ccc(Cl)cc3C(F)(F)F)c2)C1=O [Compound 418, 5-Chloro-N-{2-[(5Z)-5-({1-[4-chloro-2-(trifluoromethyl)benzyl]-1H-indazol-5-yl}methylidene)-2,4-dioxo-1,3-thiazolidin-3-yl]ethyl}-1,3-dimethyl-1H-pyrazole-4-sulfonamide]
